Assay results taken from patent US20240132450A1, “MODULATORS OF G PROTEIN-COUPLED RECEPTOR 88” (ACADIA Pharmaceuticals Inc., priority 2020, published 2024).

Target: hGPR88 receptor (Homo sapiens, UniProt Q9GZN0)
Experiment: hGPR88-HEK cAMP accumulation assay
Conditions: GRP88 agonist activity (EC50), HEK-293 cells expressing human recombinant GPR88, forskolin 200 nM, High/Medium/Low bands

Sequence of hGPR88 receptor (Q9GZN0 whole entry): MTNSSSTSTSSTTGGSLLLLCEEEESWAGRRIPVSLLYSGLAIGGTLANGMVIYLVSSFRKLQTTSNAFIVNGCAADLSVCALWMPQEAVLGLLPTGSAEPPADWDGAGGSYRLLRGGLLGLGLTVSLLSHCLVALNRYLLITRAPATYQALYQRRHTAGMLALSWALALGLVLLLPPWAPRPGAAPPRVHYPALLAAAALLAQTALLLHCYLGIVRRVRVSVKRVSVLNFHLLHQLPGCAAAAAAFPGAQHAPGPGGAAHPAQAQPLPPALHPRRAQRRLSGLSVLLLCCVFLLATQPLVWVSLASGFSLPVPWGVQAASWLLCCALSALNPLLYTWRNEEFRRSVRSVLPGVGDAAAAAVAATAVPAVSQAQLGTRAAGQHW

| Compound | EC50 |
| --- | --- |
| COCc1ccc(-c2ccc(NC(=O)C(C)(C)Oc3ccc(Cl)c(C)c3)cc2)cc1 [Example 97, 2-(4-chloro-3-methylphenoxy)-N-(4′-(methoxymethyl)-[1,1′-biphenyl]-4-yl)-2-methylpropanamide] | 1000 to 5000 nM |
| COCc1ccc(-c2ccc(NC(=O)C(C)(C)Oc3cccc(OC)c3)cc2)cc1 [Example 98, N-(4′-(methoxymethyl)-[1,1′-biphenyl]-4-yl)-2-(3-methoxyphenoxy)-2-methylpropanamide] | 1000 to 5000 nM |
| COCc1ccc(-c2ccc(NC(=O)C(C)(C)Oc3c(F)cccc3F)cc2)cc1 [Example 99, 2-(2,6-difluorophenoxy)-N-(4′-(methoxymethyl)-[1,1′-biphenyl]-4-yl)-2-methylpropanamide] | 1000 to 5000 nM |
| COCc1ccc(-c2ccc(NC(=O)C(C)(C)Oc3cccc(C(F)(F)F)c3)cc2)cc1 [Example 100, N-(4′-(methoxymethyl)-[1,1′-biphenyl]-4-yl)-2-methyl-2-(3-(trifluoromethyl)phenoxy)propanamide] | 1000 to 5000 nM |
| COCc1ccc(-c2ccc(NC(=O)C(C)(C)Oc3ccccc3OC)cc2)cc1 [Example 101, N-(4′-(methoxymethyl)-[1,1′-biphenyl]-4-yl)-2-(2-methoxyphenoxy)-2-methylpropanamide] | 1000 to 5000 nM |
| COCc1ccc(-c2ccc(NC(=O)C(C)(C)Oc3ccc(C(N)=O)cc3)cc2)cc1 [Example 102, 4-((1-((4′-(methoxymethyl)-[1,1′-biphenyl]-4-yl)amino)-2-methyl-1-oxopropan-2-yl)oxy)benzamide] | 1000 to 5000 nM |
| COCc1ccc(-c2ccc(NC(=O)C(C)(C)Oc3ccccc3F)cc2)cc1 [Example 103, 2-(2-fluorophenoxy)-N-(4′-(methoxymethyl)-[1,1′-biphenyl]-4-yl)-2-methylpropanamide] | 1000 to 5000 nM |
| COCc1ccc(-c2ccc(NC(=O)C(C)(C)Oc3ccc(C(F)(F)F)cc3)cc2)cc1 [Example 104, N-(4′-(methoxymethyl)-[1,1′-biphenyl]-4-yl)-2-methyl-2-(4-(trifluoromethyl)phenoxy)propanamide] | 1000 to 5000 nM |
| O=C(c1ccc(-c2ccc(NC(=O)C3(Oc4ccc(F)cc4)CC3)cc2)cc1)N1CCOCC1 [Example 105, 1-(4-fluorophenoxy)-N-(4′-(morpholine-4-carbonyl)-[1,1′-biphenyl]-4-yl)cyclopropane-1-carboxamide] | 1000 to 5000 nM |
| CCOc1ccc(-c2ccc(NC(=O)C3(Oc4ccc(F)cc4)CC3)cc2)cn1 [Example 106, N-(4-(6-ethoxypyridin-3-yl)phenyl)-1-(4-fluorophenoxy)cyclopropane-1-carboxamide] | 1000 to 5000 nM |
| CN(C)c1ncc(-c2ccc(NC(=O)C3(Oc4ccc(F)cc4)CC3)cc2)cn1 [Example 107, N-(4-(2-(dimethylamino)pyrimidin-5-yl)phenyl)-1-(4-fluorophenoxy)cyclopropane-1-carboxamide] | 1000 to 5000 nM |
| CN(C(=O)C(C)(C)Oc1ccc(F)cc1)c1ccc(-c2ccc(CO)cc2F)cc1 [Example 108] | 1000 to 5000 nM |
| COc1ccc(OC(C)(C)C(=O)Nc2ccc(-c3ccc(CN4CCOCC4)cc3)cc2)cc1 [Example 113] | 1000 to 5000 nM |
| COCc1ccc(-c2ccc(NC(=O)C(C)(C)Oc3ccc(F)cc3)cc2)c(F)c1 [Example 114, N-(2′-fluoro-4′-(methoxymethyl)-[1,1′-biphenyl]-4-yl)-2-(4-fluorophenoxy)-2-methylpropanamide] | 1000 to 5000 nM |
| COCc1ccc(-c2ccc(N(C)C(=O)C(C)(C)Oc3ccc(F)cc3)cc2)c(F)c1 [Example 115, N-(2′-fluoro-4-(methoxymethyl)-[1,1′-biphenyl]-4-yl)-2-(4-fluorophenoxy)-N,2-dimethylpropanamide] | < 1000 nM |
| CCOc1ccc(-c2ccc(NC(=O)C(C)(C)Oc3ccc(C#N)cc3)cc2)cn1 [Example 116, 2-(4-cyanophenoxy)-N-(4-(6-ethoxypyridin-3-yl)phenyl)-2-methylpropanamide] | 1000 to 5000 nM |
